Experimental data taken from publication PMC6789118, “Structural basis for substrate specificity and regulation of nucleotide sugar transporters in the lipid bilayer” (Nature Communications, 2019).
Residue numbers refer to the chain shown, from its start. Each block holds one molecule with its values, some of them ahead of it.

How the values were obtained:
Vrg4 N220A variant = target: T1, Vrg4 N220A variant (Saccharomyces cerevisiae, UniProt P40107, N220A); assay: IC50 competition of 3H-GMP uptake into proteoliposomes, N220A variant; format: biochemical
T1 construct: GFP (cleaved yes); made in house; host or cells: S. cerevisiae strain BJ5460
T1 sequence (P40107 whole entry N220A): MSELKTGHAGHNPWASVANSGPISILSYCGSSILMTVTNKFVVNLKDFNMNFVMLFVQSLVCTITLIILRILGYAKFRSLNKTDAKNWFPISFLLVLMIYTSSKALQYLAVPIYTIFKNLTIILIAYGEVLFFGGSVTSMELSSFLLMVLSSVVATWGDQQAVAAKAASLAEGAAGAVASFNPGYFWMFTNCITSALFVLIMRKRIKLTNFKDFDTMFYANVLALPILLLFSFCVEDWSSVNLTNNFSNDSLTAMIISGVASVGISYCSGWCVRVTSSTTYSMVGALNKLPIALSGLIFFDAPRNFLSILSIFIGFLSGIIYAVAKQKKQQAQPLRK
Protocol: (§1) Vrg4 was reconstituted into liposomes made from yeast polar lipids using the dilution method into preformed lipid vesicles. Chloroform was removed from yeast polar lipids (Avanti polar lipids) through the use of a rotary evaporator to obtain a thin film. The lipids were washed twice in pentane and then resuspended at 5 mg ml^−1 in lipid buffer (20 mM HEPES pH 7.5, 100 mM KCl). These lipid vesicles were frozen and thawed twice in liquid nitrogen and stored at −80 °C until required. For reconstitution, the lipids were thawed and then extruded first through a 0.8-μm filter and then through a 0.4-μm filter. Purified Vrg4 in DM (at 0.5 μg μl^−1 concentration) was added to the lipids at a final lipid:protein ratio of 80:1 and incubated for 1 h at room temperature, then for a further 1 h on ice; for the no-protein liposome control, the same volume of gel filtration buffer containing 0.3% DM was added. […] The amount of protein (both wild-type and mutant variants) reconstituted into the lipids was quantified by SDS–PAGE and densitometry.
(§2) To analyse transport activity, proteoliposomes were thawed and the desired concentration of internal substrate was added (typically 0.5 mM for mutant variant analysis). […] The amount of GMP transported inside the liposomes was calculated by scintillation counting in Ultima Gold (Perkin Elmer) […]

Vrg4 N221A variant = target: T2, Vrg4 N221A variant (Saccharomyces cerevisiae, UniProt P40107, N221A); assay: IC50 competition of 3H-GMP uptake into proteoliposomes, N221A variant; format: biochemical
T2 construct: GFP (cleaved yes); made in house; host or cells: S. cerevisiae strain BJ5460
T2 sequence (P40107 whole entry N221A): as the sequence (P40107 whole entry N220A) above, with A220N, N221A counted along it
Protocol: as §1, §2

Vrg4 wild type (WT) = tested on: Vrg4 wild type (WT); design: method as in PMID 29143814; conditions: WT Vrg4 in yeast polar lipid liposomes, 0.5 mM GMP inside, 3H-GMP uptake, cold competitor outside, 3 min; WT data published previously ref 10; cited from earlier work
Vrg4 Y281F variant = target: T3, Vrg4 Y281F variant (Saccharomyces cerevisiae, UniProt P40107, Y281F); assay: IC50 competition of 3H-GMP uptake into proteoliposomes, Y281F variant; format: biochemical
T3 construct: GFP (cleaved yes); made in house; host or cells: S. cerevisiae strain BJ5460
T3 sequence (P40107 whole entry Y281F): as the sequence (P40107 whole entry N220A) above, with A220N, Y281F counted along it
Protocol: as §1, §2

Vrg4 S266A variant = target: T4, Vrg4 S266A variant (Saccharomyces cerevisiae, UniProt P40107, S266A); assay: IC50 competition of 3H-GMP uptake into proteoliposomes, S266A variant; format: biochemical; conditions: in words
T4 construct: GFP (cleaved yes); made in house; host or cells: S. cerevisiae strain BJ5460
T4 sequence (P40107 whole entry S266A): as the sequence (P40107 whole entry N220A) above, with A220N, S266A counted along it
Protocol: as §1, §2

Vrg4 S269A variant = target: T5, Vrg4 S269A variant (Saccharomyces cerevisiae, UniProt P40107, S269A); assay: IC50 competition of 3H-GMP uptake into proteoliposomes, S269A variant; format: biochemical; conditions: S269A variant (removal of S269); in words
T5 construct: GFP (cleaved yes); made in house; host or cells: S. cerevisiae strain BJ5460
T5 sequence (P40107 whole entry S269A): as the sequence (P40107 whole entry N220A) above, with A220N, S269A counted along it
Protocol: as §1, §2

Vrg4 [1] = target: T6, Vrg4 (Saccharomyces cerevisiae, UniProt P40107); assay: Liposome-based transport rates under different antiport conditions; format: biochemical; conditions: 22 °C, rank among antiport conditions
T6 construct: GFP (cleaved yes); made in house; host or cells: S. cerevisiae strain BJ5460
T6 sequence (P40107 1-337): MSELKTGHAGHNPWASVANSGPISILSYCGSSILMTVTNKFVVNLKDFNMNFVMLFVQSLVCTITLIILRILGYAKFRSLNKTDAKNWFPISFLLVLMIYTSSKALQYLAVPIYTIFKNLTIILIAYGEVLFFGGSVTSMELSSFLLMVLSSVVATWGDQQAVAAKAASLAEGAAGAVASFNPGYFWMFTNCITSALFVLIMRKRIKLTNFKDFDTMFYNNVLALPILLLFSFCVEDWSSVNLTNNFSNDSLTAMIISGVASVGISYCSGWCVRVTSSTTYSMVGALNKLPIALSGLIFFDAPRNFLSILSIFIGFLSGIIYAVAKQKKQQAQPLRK
Protocol: as §1, §2

Vrg4 [2] = target: T6, Vrg4; design: method as in PMID 29143814; conditions: GDP-mannose:GMP compared with GMP:GMP in liposome-based assays ref 10; cited from earlier work
Vrg4 Y281A variant = target: T7, Vrg4 Y281A variant (Saccharomyces cerevisiae, UniProt P40107, Y281A); assay: Thermal stability in the presence of ligand, Y281A variant; format: binding; conditions: 1 mM GMP, N=3
T7 construct: GFP (cleaved yes); made in house; host or cells: S. cerevisiae strain BJ5460
T7 sequence (P40107 whole entry Y281A): as the sequence (P40107 whole entry N220A) above, with A220N, Y281A counted along it
Protocol: (§3) Thermal stability of protein samples was analysed using a Prometheus NT.48 (NanoTemper Technologies)[39]. The proteins were diluted to a final concentration of 0.7 mg ml^−1 into buffer containing 20 mM Hepes, pH 7.5, 50 mM KCl, 2 mM magnesium sulphate and 0.03% (w/v) DDM or 0.3% DM. Thermal measurements were carried out in a range from 20 to 95 °C with 1 °C per min steps. The resulting melting curves were generated by plotting the first derivative of the fluorescence ratio at 330 nm/350 nm (excitation 280 nm) against temperature. For stability in the presence of ligand (GMP) the ligand was added to the sample at a final concentration of 0.5 mM and the sample was incubated at room temperature for 5 min prior to analysis. For the sample in liposomes, reconstituted Vrg4, at a protein concentration of 0.4 mg ml^−1, in yeast polar lipids were prepared in 20 mM Hepes, pH 7.5, 50 mM KCl, 2 mM magnesium sulphate and extruded through a 0.4 μm membrane prior to analysis. For the solubilised liposome sample, liposomes were solubilised in 1.5% DDM for one hour and centrifuged at 100,000 × g for 30 min prior to analysis.

Vrg4 K118A variant [3] = target: T8, Vrg4 K118A variant (Saccharomyces cerevisiae, UniProt P40107, K118A); assay: Thermal stability in the presence of ligand, K118A variant; format: binding; conditions: 1 mM GMP
T8 construct: GFP (cleaved yes); made in house; host or cells: S. cerevisiae strain BJ5460
T8 sequence (P40107 whole entry K118A): as the sequence (P40107 whole entry N220A) above, with K118A, A220N counted along it
Protocol: as §3

Vrg4 K118A variant [4] = target: T9, Vrg4 K118A variant (Saccharomyces cerevisiae, UniProt P40107 1-337, K118A); assay: cell-based or functional assay
T9 sequence: T6 sequence (P40107 1-337) with K118A

Molecule: Nc1ncnc2c1ncn2[C@@H]1O[C@H](COP(=O)(O)O)[C@@H](O)[C@H]1O [AMP]
affinity compared with WT (Vrg4 N220A variant; N220A variant, IC50 analysis, in words): markedly reduced
IC50 (Vrg4 N221A variant): 27 µM
IC50 (Vrg4 wild type (WT)): 50 µM

Molecule: Nc1nc2c(ncn2[C@@H]2O[C@H](COP(=O)(O)OP(=O)(O)O[C@H]3O[C@H](CO)[C@@H](O)[C@H](O)[C@@H]3O)[C@@H](O)[C@H]2O)c(=O)[nH]1 [GDP-mannose]
affinity of the variant compared with wild type (Vrg4 Y281F variant; Y281F variant, IC50 analysis, in words): remains the same as wild type
affinity compared with WT (Vrg4 S266A variant; IC50 analysis): only slightly reduced
change in the IC50 compared with WT (Vrg4 S269A variant): did not result in any significant change
transport rate (Vrg4 [1]; GDP-mannose:GDP-mannose antiport (transported against itself), 0.5 mM inside, 20 μM outside): fastest
IC50 (Vrg4 wild type (WT)): 7.6 µM
transport efficiency (Vrg4 [2]): more efficient

Molecule: Nc1nc2c(ncn2[C@@H]2O[C@H](COP(=O)(O)O)[C@@H](O)[C@H]2O)c(=O)[nH]1 [GMP, guanine monophosphate]
IC50 (Vrg4 Y281F variant): 23 µM
IC50 value for GMP transport compared with WT (Vrg4 S266A variant): significant increase
change in the IC50 compared with WT (Vrg4 S269A variant): did not result in any significant change
IC50 (Vrg4 N220A variant): 12 µM
IC50 (Vrg4 N221A variant): 22 µM
transport rate (Vrg4 [1]; GMP:AMP antiport, 1 mM AMP inside, 20 μM GMP outside): slowest
thermal stabilisation of the protein by ligand (Vrg4 Y281A variant): not stabilised
thermal stabilisation of the protein by ligand (Vrg4 K118A variant [3]): stabilised to a similar extent as WT Vrg4
IC50 (Vrg4 wild type (WT)): 7 µM

dominant negative assay: transport of 3H-GMP into liposomes reconstituted with equimolar WT and K118A (also at 75 and 25% WT), relative to WT alone (Vrg4 K118A variant [4]): ~75%
B1: Vrg4, GDP-mannose transporter from Saccharomyces cerevisiae (wild type) (natural protein)
chain: T6 sequence (P40107 1-337)
